Results as given in patent publication US8685726B2, “Small molecules supporting pluripotent cell growth and methods thereof” (Viacyte, Inc., priority 2009, dated 2014).
Entries after “also recorded” stand apart in the source; their conditions may differ.

Key:
hES cells = assay: Low-density real-time cell index monitoring (RT-CES impedance reader); assay type: cell-based, human; details: for time after plating at which cell index rises above background / expansion detectable: 50 μM each factor; for time after plating at which cell index rises above background / expansion detectable / lowest concentration that elicited an effect: StemPro hESC SFM; for lowest concentration that elicited an effect: titration
Procedure: FIG. 4. Titration of NE and ACh using the RT-CES impedance reader. 1000 hES cells/well were plated in StemPro® hESC SFM containing the indicated concentrations of small molecules (in μM). In such an assay, the timing of when the cell index rises is associated with the proportion of cells that survive and expand at low density.
FIG. 5. Combined effects of small molecules compound combinations in low cell density assays. (A) 1000 hES cells/well were plated in StemPro® hESC SFM containing small molecules at 50 μM (NE, ACh, Adenosine, GABA) or 10 μM (Y27632). The assay was carried out over 5 days using the RT-CES system.
FIG. 6. […] 1000 hES cells/well were plated in StemPro® hESC SFM containing Heregulin, IGF1 and Activin (HIA) and the indicated small molecules. […] Compounds were tested at 10 μM. The DMSO trace is an average of 8 wells. […] Compounds were tested at the indicated concentrations.
FIG. 7. […] 1000 hES cells/well were plated in StemPro® hESC SFM containing the indicated combinations of growth factors and small molecules. Heregulin (H), LR3-IGF1 (I), Activin (A).
FIG. 9. Low-density RT-CES assays of combinations of growth factors and neurotransmitters. 1000 hES cells/well were plated in StemPro® hESC SFM containing the indicated combinations of growth factors and small molecules. Heregulin (H), LR3-IGF1 (I), Activin (A). Small molecules were tested at 50 μM.
Furthermore, pluripotent cells can also be grown in 96-well culture devices that provide real-time measurements of impedance, which can be used to measure cell proliferation and viability using the RT-CES™ methods from ACEA Biosciences, Inc. (www (dot) aceabio (dot) com). Such an approach would enable a label-free identification and quantification of subtle or immediate effects on differentiable cells, as well as measurements of proliferation, apoptosis and changes to morphology, in real time.
To examine more closely the potency of individual neurotransmitters and determine if synergies exist between different factors, low-density assays were performed in real time using an impedance reader. The ACEA biosciences RT-CES system uses 96-well trays that contain embedded microsensors to monitor changes in electrical impedance, which is translated into a measure of cell index. Any overt alteration within a cell culture can be detected, including but not limited to cell proliferation, migration, cell spreading, apoptosis, differentiation and the like. […] Once an undifferentiated culture becomes confluent the cell index remains high, but tends to go down and up (scallop) between daily feedings. Conversely, differentiation is typically indicated by the appearance of distinctive patterns, such as peaks and troughs in the cell index, likely indicative of an epithelial-to-mesenchymal transition, flattening, cell migration, apoptosis or similar differentiation and growth related changes.
Human ES cells were plated at low density, 1000 cells/well, in RT-CES trays and cultured for 10 days (FIG. 4). Cells were plated directly in StemPro® hESC SFM containing carrier control (DMSO), NE, or ACh.

CyT49 cells = assay: Karyotyping (G-banding) of replated suspension cultures after 10 passages; assay type: cell-based, human; details: after 10 passages in suspension, G-banded
Procedure: FIG. 11. Suspension hES cell cultured with NE, […] remain undifferentiated. CyT49 cells were grown as suspension aggregates in the presence of NE, […] for 16 passages without differentiating morphologically. After p10, some cells were re-plated to adherent culture and examined by karyotyping and immunofluorescent staining for OCT4 and Tra-1-61. All cultures remained undifferentiated and expressed these pluripotency markers uniformly. (SP) StemPro® SFM HIA, NE (+NE at 50 μM), ACh (+ACh at 50 μM), NE/ACh (+NE/ACh at 50 μM). Karyotype data is shown to the right. […] Cultures containing ACh were aneuploid.
To examine these possibilities, these cultures were serially passaged to p1 (FIG. 10E). Because Y27632 treated aggregates were of a larger size, they required passaging after only 3 days, and only generated about 1.2×10^7 cells during that period. In contrast, the cultures containing NE, ACh or NE/ACh were cultured for 6 days and generated greater than 2×10^7 cells per well. Suspension cultures containing NE, ACh or NE/ACh were maintained for 12 serial passages, in parallel with a HAIF control culture, and all conditions maintained an undifferentiated morphology throughout. Suspension aggregates were dissociated to single cells after 10 passages and replated to adherent culture for analyses. […] Replated cultures were also G-banded to determine their karyotype.

Question: Which results are given for `NCC(O)c1ccc(O)c(O)c1` (racemic) [NE, (±)-Norepinephrine (+)-bitartrate]?
Answer: effect on low-density survival/proliferation (hES cells; 1 μM, 1000 cells/well, 10 days): did not appear to affect low-density survival/proliferation; survival and expansion at low density, single factors and two-factor combinations (hES cells; 50 μM (NE, ACh, Adenosine, GABA) or 10 μM (Y27632), 1000 cells/well, 5 days): effective survival and expansion; time after plating at which cell index rises above background / expansion detectable (hES cells; 1000 cells/well): about 3 days; time to apparent confluence (hES cells; 70 μM, 1000 cells/well): ~9 days; time to apparent confluence (hES cells; 100 μM, 1000 cells/well): ~10 days; time at which increases in cell index were first detected (hES cells; 5, 10 and 50 μM, 1000 cells/well): ~6.5 days; survival/expansion on addition of neurotransmitter (hES cells; HAI or HI background, 1000 cells/well): substantially improved survival/expansion; survival/expansion (hES cells; StemPro hESC SFM HI background): maximal survival/expansion; rises in impedance / survival and expansion with neurotransmitters (hES cells; small molecules 50 μM, 1000 cells/well, growth factor combinations): detected much earlier; lowest concentration that elicited an effect (hES cells; 1000 cells/well): 5 µM

Question: With `CC(=O)OCC[N+](C)(C)C` [ACh, acetylcholine] as the molecule, how does the “time after plating at which cell index rises above background / expansion detectable” value (hES cells; 1000 cells/well) read?
Answer: Its value is “about 3 days”.

Question: And the “lowest concentration that elicited an effect” value (hES cells; 1000 cells/well)?
Answer: Its value is 5 µM.

Question: What about the karyotype (CyT49 cells) of the same molecule?
Answer: Its karyotype is “aneuploid or abnormal; also recorded: aneuploid”.
